Data on 45 molecules can be found in patent US7964624B1, “Inhibitors of serine proteases” (priority 2005, dated 2011).

T1 sequence (Q9WMX2 1027-1207, other chains not shown): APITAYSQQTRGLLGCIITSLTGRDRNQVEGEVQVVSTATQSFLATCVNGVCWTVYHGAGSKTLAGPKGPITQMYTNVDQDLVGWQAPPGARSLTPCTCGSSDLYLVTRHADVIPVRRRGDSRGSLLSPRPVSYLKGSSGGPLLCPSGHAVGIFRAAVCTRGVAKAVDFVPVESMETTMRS

The test has as its target T1, HCV NS3 protease domain (Hepatitis C virus genotype 1b, UniProt Q9WMX2).
T1 construct: The first 181 amino acids of NS3 (residues 1027-1207 of the viral polyprotein); hexa-histidine (C); made in house; host or cells: E. coli BL21/DE3 pLysS
Description: biochemical. The conditions noted are these: Enzyme Assay 1 (HCV NS3 Protease Domain Peptide Cleavage Assay) activity, apparent Ki class.
In the case of `CCC[C@H](NC(=O)[C@@H]1C[C@]2(CC(c3cccc(Cl)c3)=NO2)CN1C(=O)[C@@H](NC(=O)c1ccnn1-c1ccccc1)C(C)(C)C)C(=O)C(=O)NC1CC1` [Compound 571], the Ki lay in the range of 100 to 500 nM.
For `CCC[C@H](NC(=O)[C@@H]1C[C@]2(CC(c3cccc(Cl)c3)=NO2)CN1C(=O)[C@@H](NC(=O)OC(C)C)C(C)(C)C)C(=O)C(=O)NC1CC1` [Compound 193] the value was 100 to 500 nM.
For `CCC[C@H](NC(=O)[C@@H]1C[C@]2(CC(c3ccc4c(c3)OCO4)=NO2)CN1C(=O)[C@@H](NC(C)=O)C(C)(C)C)C(=O)C(=O)NC1CC1` [Compound 570] the value was 100 to 500 nM.
For `CCC[C@H](NC(=O)[C@@H]1C[C@]2(CC(c3cc(C)c(OC)c(C)c3)=NO2)CN1C(=O)[C@@H](NC(=O)O[C@H]1CCOC1)C(C)(C)C)C(=O)C(=O)NC1CC1` [Compound 224] the value was 100 to 500 nM.
`CCC[C@H](NC(=O)[C@@H]1C[C@]2(CC(c3cc(F)cc(Cl)c3)=NO2)CN1C(=O)[C@@H](NC(=O)CC1CCOCC1)C(C)(C)C)C(=O)C(=O)NC1CC1` [Compound 234]: the Ki was in the range of 100 to 500 nM.
For the molecule `CCC[C@H](NC(=O)[C@@H]1C[C@]2(CC(c3cccc(Cl)c3)=NO2)CN1C(=O)[C@@H](NC(=O)CCC1CCCCC1)C(C)(C)C)C(=O)C(=O)NC1CC1` [Compound 226], the Ki fell in the range of 100 to 500 nM.
For `CCC[C@H](NC(=O)[C@@H]1C[C@]2(CC(c3cccc(Cl)c3)=NO2)CN1C(=O)[C@@H](NC(=O)CCC1NC(=O)NC1=O)C(C)(C)C)C(=O)C(=O)NC1CC1` (stereo partly drawn) [Compound 505] the value was 100 to 500 nM; for `CCC[C@H](NC(=O)[C@@H]1C[C@]2(CC(c3ccc(Br)o3)=NO2)CN1C(=O)[C@@H](NC(=O)CC1CCCCC1)C(C)(C)C)C(=O)C(=O)NC1CC1` [Compound 179], 100 to 500 nM; for `CCC[C@H](NC(=O)[C@@H]1C[C@]2(CC(c3cccc(Cl)c3)=NO2)CN1C(=O)[C@@H](NC(=O)OCc1ccccc1)C(C)(C)C)C(=O)C(=O)NC1CC1` [Compound 526], 100 to 500 nM.
For `CCC[C@H](NC(=O)[C@@H]1C[C@]2(CC(c3ccc(F)c(C)c3)=NO2)CN1C(=O)[C@@H](NC(=O)O[C@H]1CCOC1)C(C)(C)C)C(=O)C(=O)NC1CC1` [Compound 555] the value was 100 to 500 nM; for `CCC[C@H](NC(=O)[C@@H]1C[C@]2(CC(c3ccccc3Cl)=NO2)CN1C(=O)[C@@H](NC(=O)OCc1ccccc1)C(C)(C)C)C(=O)C(=O)NC1CC1` [Compound 164], greater than 500 nM.
For `CCC[C@H](NC(=O)[C@@H]1C[C@]2(CC(c3cccc(Cl)c3)=NO2)CN1C(=O)[C@@H](NC(=O)CN1CCOCC1)C(C)(C)C)C(=O)C(=O)NC1CC1` [Compound 81] the value was greater than 500 nM; for `CCC[C@H](NC(=O)[C@@H]1C[C@]2(CC(c3cccc(Cl)c3)=NO2)CN1C(=O)[C@@H](NC(=O)CCc1cccc(OC)c1)C(C)(C)C)C(=O)C(=O)NC1CC1` [Compound 189], greater than 500 nM.
Regarding `CCC[C@H](NC(=O)[C@@H]1C[C@@]2(CC(c3ccccc3)=NO2)CN1C(=O)c1ccc[nH]1)C(=O)C(=O)NC1CC1` [Compound 80], the Ki is greater than 500 nM.
For `CCC[C@H](NC(=O)[C@@H]1C[C@]2(CC(c3ccc4c(c3)OCO4)=NO2)CN1C(=O)[C@@H](NC(=O)O[C@H]1CCOC1)C(C)(C)C)C(=O)C(=O)NC1CC1` [Compound 527] the value was 100 to 500 nM.
For `CCC[C@H](NC(=O)[C@@H]1C[C@]2(CC(c3cccc(Cl)c3)=NO2)CN1C(=O)[C@@H](NC(=O)CC(C)(O)C(F)(F)F)C(C)(C)C)C(=O)C(=O)NC1CC1` (stereo partly drawn) [Compound 475], the Ki lay within 100 to 500 nM.
For `CCC[C@H](NC(=O)[C@@H]1C[C@]2(CC(c3cccc(Cl)c3)=NO2)CN1C(=O)[C@@H](NC(=O)[C@@H](C)Cc1ccccc1)C(C)(C)C)C(=O)C(=O)NC1CC1` [Compound 334] the value was greater than 500 nM; for `CCCC(NC(=O)[C@@H]1C[C@]2(CC(c3ccc(OC)c(OC)c3)=NO2)CN1C(=O)[C@@H](NC(=O)O[C@H]1CCOC1)C(C)(C)C)C(=O)C(=O)NC1CC1` (stereo partly drawn) [Compound 196], 100 to 500 nM.
For `CCC[C@H](NC(=O)[C@@H]1C[C@]2(CC(c3ccc(CC)o3)=NO2)CN1C(=O)[C@@H](NC(=O)CC1CCCCC1)C(C)(C)C)C(=O)C(=O)NC1CC1` [Compound 256] the value was 100 to 500 nM.
For `CCC[C@H](NC(=O)[C@@H]1C[C@]2(CC(c3cccc(Cl)c3)=NO2)CN1C(=O)[C@@H](NC(=O)OCC)C(C)(C)C)C(=O)C(=O)NC1CC1` [Compound 407] the value was 100 to 500 nM.
Take `CCC[C@H](NC(=O)[C@@H]1C[C@]2(CC(c3cccc(Cl)c3)=NO2)CN1C(=O)[C@@H](Nc1ncc(C)cc1[N+](=O)[O-])C(C)(C)C)C(=O)C(=O)NC1CC1` [Compound 345]: the Ki was greater than 500 nM.
For `CCC[C@H](NC(=O)[C@@H]1C[C@]2(CC(c3cccc(Cl)c3)=NO2)CN1C(=O)[C@@H](NC(=O)C(C)(C#N)Cc1ccccc1)C(C)(C)C)C(=O)C(=O)NC1CC1` (stereo partly drawn) [Compound 538] the value was greater than 500 nM.
With `CC(C)(C)NC(=O)N[C@H](C(=O)N1C[C@@]2(CC(c3cccc(Cl)c3)=NO2)C[C@H]1C(=O)NC(CC1CCC1)C(=O)C(N)=O)C(C)(C)C` (stereo partly drawn) [Compound 247], the Ki was less than 100 nM.
For `CCC[C@H](NC(=O)[C@@H]1C[C@]2(CC(c3cccc(Cl)c3)=NO2)CN1C(=O)[C@@H](NC(=O)Cc1cc2c(cc1Cl)OCO2)C(C)(C)C)C(=O)C(=O)NC1CC1` [Compound 449] the value was 100 to 500 nM; for `CCC[C@H](NC(=O)[C@@H]1C[C@]2(CC(C(=O)NCC)=NO2)CN1C(=O)[C@@H](NC(=O)O[C@H]1CCOC1)C(C)(C)C)C(=O)C(=O)NC1CC1` [Compound 146], greater than 500 nM; for `CCC[C@H](NC(=O)[C@@H]1C[C@]2(CC(c3cccc(Cl)c3)=NO2)CN1C(=O)[C@@H](NC(=O)Nc1ccc(N2C(=O)C=CC2=O)cc1)C(C)(C)C)C(=O)C(=O)NC1CC1` [Compound 128], 100 to 500 nM.
For `CCC[C@H](NC(=O)[C@@H]1C[C@]2(CC(c3ccc4noc(-c5ccc(Cl)cc5)c4c3)=NO2)CN1C(=O)[C@@H](NC(=O)O[C@H]1CCOC1)C(C)(C)C)C(=O)C(=O)NC1CC1` [Compound 448] the value was 100 to 500 nM; for `CCC[C@H](NC(=O)[C@@H]1C[C@]2(CC(c3cccc(Cl)c3)=NO2)CN1C(=O)[C@@H](NC(=O)CCc1ccc(F)cc1)C(C)(C)C)C(=O)C(=O)NC1CC1` [Compound 7], greater than 500 nM; for `CCC[C@H](NC(=O)[C@@H]1C[C@]2(CC(c3c4ccccc4cc4ccccc34)=NO2)CN1C(=O)[C@@H](NC(=O)OCc1ccccc1)C(C)(C)C)C(=O)C(=O)NC1CC1` [Compound 199], greater than 500 nM.
For `CCC[C@H](NC(=O)[C@@H]1C[C@]2(CC(c3cccc(Cl)c3)=NO2)CN1C(=O)[C@@H](NC(=O)N[C@@H](C)c1ccccc1)C(C)(C)C)C(=O)C(=O)NC1CC1` [Compound 333], the Ki was 100 to 500 nM.
For `CCCC1=NO[C@]2(C1)C[C@@H](C(=O)N[C@@H](CCC)C(=O)C(=O)NC1CC1)N(C(=O)[C@@H](NC(=O)OCc1ccccc1)C(C)(C)C)C2` [Compound 235] the value was greater than 500 nM; for `CC(C)C[C@H](NC(=O)[C@@H]1C[C@]2(CC(c3cccc(Cl)c3)=NO2)CN1C(=O)[C@@H](NC(=O)CC1CCCCC1)C(C)(C)C)C(=O)C(=O)NC1CC1` [Compound 579], 100 to 500 nM; for `CCC[C@H](NC(=O)[C@@H]1C[C@]2(CC(c3cc(C)cc(C)c3)=NO2)CN1C(=O)[C@@H](NC(=O)O[C@H]1CCOC1)C(C)(C)C)C(=O)C(=O)NC1CC1` [Compound 519], 100 to 500 nM.
For `CCC[C@H](NC(=O)[C@@H]1C[C@]2(CC(c3ccccc3)=NO2)CN1C(=O)[C@@H](NC(C)=O)C(C)(C)C)C(=O)C(=O)NC1CC1` [Compound 228] the value was greater than 500 nM.
For `CCC[C@H](NC(=O)[C@@H]1C[C@]2(CC(c3ccc(Cl)cc3)=NO2)CN1C(=O)[C@@H](NC(=O)CC1CCCCC1)C(C)(C)C)C(=O)C(=O)NC1CC1` [Compound 55] the value was 100 to 500 nM.
`CCC[C@H](NC(=O)[C@@H]1C[C@]2(CC(c3cccc(Cl)c3)=NO2)CN1C(=O)[C@@H](NC(=O)CC(C)(C)O)C(C)(C)C)C(=O)C(=O)NC1CC1` [Compound 392]: the Ki lay in the range of 100 to 500 nM.
For `CCC[C@H](NC(=O)[C@@H]1C[C@]2(CC(c3cccc(C)c3)=NO2)CN1C(=O)[C@@H](NC(=O)O[C@H]1CCOC1)C(C)(C)C)C(=O)C(=O)NC1CC1` [Compound 444] the value was 100 to 500 nM.
For `CCC[C@H](NC(=O)[C@@H]1C[C@]2(CC(c3cccc(Cl)c3)=NO2)CN1C(=O)[C@@H](NC(=O)c1c(OC)ccc2ccccc12)C(C)(C)C)C(=O)C(=O)NC1CC1` [Compound 435] the value was 100 to 500 nM.
Consider `CCC[C@H](NC(=O)[C@@H]1C[C@]2(CC(c3cccc(Cl)c3)=NO2)CN1C(=O)[C@@H](NC(=O)N[C@H](COC)C(C)(C)C)C(C)(C)C)C(=O)C(=O)NC1CC1` [Compound 477], for which the Ki was less than 100 nM.
For `CCC[C@H](NC(=O)[C@@H]1C[C@]2(CC(c3cc(C(F)(F)F)cc(C(F)(F)F)c3)=NO2)CN1C(=O)[C@@H](NC(=O)O[C@H]1CCOC1)C(C)(C)C)C(=O)C(=O)NC1CC1` [Compound 330] the value was 100 to 500 nM; for `CCC[C@H](NC(=O)[C@@H]1C[C@]2(CC(c3ccccc3)=NO2)CN1C(=O)[C@@H](NC(=O)Nc1cccc2ccccc12)C(C)(C)C)C(=O)C(=O)NC1CC1` [Compound 288], 100 to 500 nM.
For `CCC[C@H](NC(=O)[C@@H]1C[C@]2(CC(c3cc(Cl)c(OC)c(OC)c3)=NO2)CN1C(=O)[C@@H](NC(=O)CC1CCCCC1)C(C)(C)C)C(=O)C(=O)NC1CC1` [Compound 494] the value was less than 100 nM; for `CCC[C@H](NC(=O)[C@@H]1C[C@]2(CC(C3CCCC3)=NO2)CN1C(=O)[C@@H](NC(=O)O[C@H]1CCOC1)C(C)(C)C)C(=O)C(=O)NC1CC1` [Compound 70], greater than 500 nM; for `CCC[C@H](NC(=O)[C@@H]1C[C@]2(CC(c3cccc(Cl)c3)=NO2)CN1C(=O)[C@@H](NC(=O)CC(C)(C)C)C(C)(C)C)C(=O)C(=O)NC1CC1` [Compound 319], 100 to 500 nM.
Consider `CCC[C@H](NC(=O)[C@@H]1C[C@]2(CC(c3cccc(Cl)c3)=NO2)CN1C(=O)[C@@H](NC(=O)OCc1cc(F)cc(F)c1)C(C)(C)C)C(=O)C(=O)NC1CC1` [Compound 203], for which the Ki fell in the range of 100 to 500 nM.
